Laboratory results as given in publication PMC12678798, “Discovery of an allosteric binding site for anthraquinones at the human P2X4 receptor” (Nature Communications, 2025).
Residue numbers refer to the chain shown, from its start. “Also recorded” adds a separate entry of the source. Where two headings read alike, the source gives them in different places.

Legend:
[1] = target: T1, human wt P2X2 receptor (Homo sapiens, UniProt Q9UBL9); assay: ATP-induced calcium influx assay, human wt P2X2 receptor in 1321N1 astrocytoma cells; format: cell-based; details: for IC50: wt hP2X2
T1 construct: expressed in transfected cells
T1 sequence (Q9UBL9 1-471): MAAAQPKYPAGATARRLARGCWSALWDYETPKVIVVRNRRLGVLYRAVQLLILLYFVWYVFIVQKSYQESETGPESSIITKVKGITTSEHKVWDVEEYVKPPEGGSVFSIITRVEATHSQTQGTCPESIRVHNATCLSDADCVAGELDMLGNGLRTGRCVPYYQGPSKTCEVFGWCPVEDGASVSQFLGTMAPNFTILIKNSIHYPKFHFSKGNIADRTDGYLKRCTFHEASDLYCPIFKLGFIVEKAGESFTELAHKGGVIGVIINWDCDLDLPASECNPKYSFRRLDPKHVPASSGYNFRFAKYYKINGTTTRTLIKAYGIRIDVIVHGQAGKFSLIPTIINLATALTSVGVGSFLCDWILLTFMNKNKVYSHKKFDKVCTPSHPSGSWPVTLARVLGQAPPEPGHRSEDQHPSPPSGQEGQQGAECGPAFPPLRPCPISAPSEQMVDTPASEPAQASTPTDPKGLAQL

[2] = target: T2, chimeric P2X4(P2X2) receptor c6^N208-S216 (Homo sapiens, UniProt Q99571, I209R/N208D/S216R/T211D/T212G); details: ATP at EC80
T2 sequence (Q99571 1-388 N208D/I209R/T211D/T212G/S216R): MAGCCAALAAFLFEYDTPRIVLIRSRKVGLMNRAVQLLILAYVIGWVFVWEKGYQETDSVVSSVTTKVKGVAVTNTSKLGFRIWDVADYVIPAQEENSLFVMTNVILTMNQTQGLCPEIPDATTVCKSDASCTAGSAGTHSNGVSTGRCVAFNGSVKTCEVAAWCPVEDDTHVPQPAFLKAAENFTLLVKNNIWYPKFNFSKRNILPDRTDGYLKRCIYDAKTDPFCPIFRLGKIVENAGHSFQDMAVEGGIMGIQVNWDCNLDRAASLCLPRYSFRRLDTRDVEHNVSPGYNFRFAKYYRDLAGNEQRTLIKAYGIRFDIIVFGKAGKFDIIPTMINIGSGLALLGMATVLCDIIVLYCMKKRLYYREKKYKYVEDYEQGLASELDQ

[3] = target: T3, human wt P2X4 receptor (Homo sapiens, UniProt Q99571); assay: ATP-induced calcium influx assay, human wt P2X4 receptor in 1321N1 astrocytoma cells; format: cell-based
T3 construct: expressed in transfected cells
T3 sequence (Q99571 1-388): T2 sequence (Q99571 1-388 N208D/I209R/T211D/T212G/S216R) with D208N, R209I, D211T, G212T, R216S

[4] = target: T4, P2X4-Q308T receptor mutant (Homo sapiens, UniProt Q99571, Q308T); details: calcium influx
T4 sequence (Q99571 1-388 Q308T): T2 sequence (Q99571 1-388 N208D/I209R/T211D/T212G/S216R) with D208N, R209I, D211T, G212T, R216S, Q308T

[5] = target: T5, human P2X4-E307T receptor mutant (Homo sapiens, UniProt Q99571, E307T); assay: ATP-induced calcium influx assay, P2X4-E307T mutant in 1321N1 astrocytoma cells; format: cell-based; details: for Potency increase at P2X4-E307T compared to wt P2X4: ratio of IC50 values, calcium influx
T5 construct: expressed in transfected cells
T5 sequence (Q99571 1-388 E307T): T2 sequence (Q99571 1-388 N208D/I209R/T211D/T212G/S216R) with D208N, R209I, D211T, G212T, R216S, E307T

[6] = Physicochemical properties (water solubility, lipophilicity); details: as stated in words
[7] = target: T6, P2X4 receptor mutant E307T_R82A (Homo sapiens, UniProt Q99571, E307T/R82A); assay: TEVC, double mutant E307T_R82A in Xenopus laevis oocytes; format: cell-based; details: 10 µM ATP, 2 min preincubation
T6 construct: host or cells: Xenopus laevis oocytes injected with cRNA (pNKS2 vector)
Procedure: (§1) Xenopus laevis frogs were from Nasco International (Fort Atkinson, WI, USA) and kept at the Core Facility Animal Models (CAM) of the BMC of LMU Munich, Germany (Az: 4.3.2–5682/LMU/BMC/CAM) in accordance with the EU Animal Welfare Act. […] Fifty nanoliters of cRNA (0.5 µg/µL) were injected using a Nanoject II injector (Science Products, Drummond, USA) and oocytes were kept in ND96 (96 mM NaCl, 2 mM KCl, 1 mM MgCl2, 1 mM CaCl2, 5 mM HEPES, pH 7.4–7.5) supplemented with 5 μg/mL gentamicin at 16 °C.
(§2) cDNA encoding human P2X4 receptor (NM_002560.3) was obtained from BioCat GmbH (Heidelberg, Germany) and cloned into the pNKS2 vector[87] using Gibson Assembly (E2621L, New England Biolabs, USA) according to the manufacturer’s instructions. Point mutations were introduced by site-directed mutagenesis using KLD Enzyme Mix (M0554S, New England Biolabs, USA). All constructs were verified by full-length cDNA sequencing (Eurofins Genomics, Germany). Plasmids were linearized with NotI-HF (R3189S, New England Biolabs, USA) and purified using the MinElute Reaction Cleanup Kit (Qiagen, Hilden, Germany). […]
(§3) Statistical analysis was performed with GraphPad Prism version 10 software, and data are presented as means ± SEM. Data were assessed for normality using the Shapiro–Wilk test and for homogeneity of variances using Levene’s test. […]

[8] = target: T7, P2X4 receptor mutant E307Q (Homo sapiens, UniProt Q99571, E307Q); assay: TEVC, P2X4-E307Q mutant in Xenopus laevis oocytes; format: cell-based; details: 10 µM ATP, 2 min preincubation, PSB-0704 3 µM, PSB-0739 300 nM and 1 µM
T7 construct: host or cells: Xenopus laevis oocytes injected with cRNA (pNKS2 vector)
Procedure: as §1, §2, §3

[9] = target: T8, P2X4 receptor mutant E307T_R301A (Homo sapiens, UniProt Q99571, E307T/R301A); assay: TEVC, double mutant E307T_R301A in Xenopus laevis oocytes; format: cell-based; details: 10 µM ATP, 2 min preincubation
T8 construct: host or cells: Xenopus laevis oocytes injected with cRNA (pNKS2 vector)
Procedure: as §1, §2, §3

[10] = target: T9, P2X4 receptor mutant E307T_K298A (Homo sapiens, UniProt Q99571, E307T/K298A); assay: TEVC, double mutant E307T_K298A in Xenopus laevis oocytes; format: cell-based; details: 10 µM ATP, 2 min preincubation
T9 construct: host or cells: Xenopus laevis oocytes injected with cRNA (pNKS2 vector)
Procedure: as §1, §2, §3

[11] = target: T10, P2X4 receptor mutant E307T_R301K (Homo sapiens, UniProt Q99571, E307T/R301K); assay: TEVC, double mutant E307T_R301K in Xenopus laevis oocytes; format: cell-based; details: 10 µM ATP, 2 min preincubation
T10 construct: host or cells: Xenopus laevis oocytes injected with cRNA (pNKS2 vector)
Procedure: as §1, §2, §3

[12] = target: T11, hP2X4-E307T receptor mutant (Homo sapiens, UniProt Q99571, E307T); assay: Two-electrode voltage clamp (TEVC), P2X4-E307T in Xenopus laevis oocytes; format: cell-based; details: for Inhibition of ATP-induced current: E307T, 10 µM ATP, 2 min preincubation, PSB-0704 3 µM, PSB-0739 300 nM and 1 µM; for IC50: read-out: pIC50 (inhibition of ATP-induced current) (converted)
T11 construct: host or cells: Xenopus laevis oocytes injected with cRNA (pNKS2 vector)
T11 sequence (Q99571 1-388 E307T): T2 sequence (Q99571 1-388 N208D/I209R/T211D/T212G/S216R) with D208N, R209I, D211T, G212T, R216S, E307T

[13] = target: T12, chimeric P2X4(P2X2) receptor c10^R301-Q308 (Homo sapiens, UniProt Q99571, A304N/D302K/DEL301-301/E307T/L303I/N306T/Q308T); assay: ATP-induced calcium influx assay, chimeric receptor c10 in 1321N1 astrocytoma cells; format: cell-based
T12 construct: expressed in transfected cells; gene synthesis (Geneart), pLVX-IRES-mCherry (bicistronic, mCherry not fused)
T12 sequence (Q99571 with tags, fused parts or gaps DEL301-301/D302K/L303I/A304N/N306T/E307T/Q308T): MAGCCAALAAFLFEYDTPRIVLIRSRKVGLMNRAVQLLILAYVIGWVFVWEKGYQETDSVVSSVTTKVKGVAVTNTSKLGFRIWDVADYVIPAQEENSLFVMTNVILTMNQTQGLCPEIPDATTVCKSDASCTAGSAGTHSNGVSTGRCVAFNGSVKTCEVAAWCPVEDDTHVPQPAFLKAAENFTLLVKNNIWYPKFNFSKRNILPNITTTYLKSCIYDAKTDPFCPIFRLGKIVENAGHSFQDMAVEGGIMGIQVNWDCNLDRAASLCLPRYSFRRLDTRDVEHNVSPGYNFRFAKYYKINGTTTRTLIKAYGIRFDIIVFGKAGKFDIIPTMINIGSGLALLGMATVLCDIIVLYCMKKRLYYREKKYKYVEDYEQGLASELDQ

T10 sequence (Q99571 whole entry R301K/E307T): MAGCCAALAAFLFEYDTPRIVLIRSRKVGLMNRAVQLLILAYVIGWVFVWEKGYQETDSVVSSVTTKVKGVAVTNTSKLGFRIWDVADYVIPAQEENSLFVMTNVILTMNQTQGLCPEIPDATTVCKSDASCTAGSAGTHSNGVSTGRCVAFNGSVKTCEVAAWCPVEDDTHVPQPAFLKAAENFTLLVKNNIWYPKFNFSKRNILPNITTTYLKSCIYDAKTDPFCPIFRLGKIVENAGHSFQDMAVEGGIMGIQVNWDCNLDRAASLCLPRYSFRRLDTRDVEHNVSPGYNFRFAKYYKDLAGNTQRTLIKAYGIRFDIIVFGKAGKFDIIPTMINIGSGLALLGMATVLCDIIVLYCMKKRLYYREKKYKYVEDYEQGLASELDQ
T8 sequence (Q99571 whole entry R301A/E307T): as the sequence (Q99571 whole entry R301K/E307T) above, with K301A counted along it
T7 sequence (Q99571 whole entry E307Q): as the sequence (Q99571 whole entry R301K/E307T) above, with K301R, T307Q counted along it
T9 sequence (Q99571 whole entry K298A/E307T): as the sequence (Q99571 whole entry R301K/E307T) above, with K298A, K301R counted along it
T6 sequence (Q99571 whole entry R82A/E307T): as the sequence (Q99571 whole entry R301K/E307T) above, with R82A, K301R counted along it

Row | Effect of mutation on antagonist potency (vs E307T) [7] | IC50 [3] | Inhibition of ATP-induced current [8] | IC50 [5] | Effect of mutation on antagonist potency (vs E307T) [9] | Effect of mutation on antagonist potency (vs E307T) [10] | Inhibition of ATP-induced current [12] | IC50 [12] | IC50 [13] | Compound | Kind of modulation at an EC20 of ATP ([1]; P2X2, ATP […] (EC20)) | IC50 ([1]; ATP at EC80, read-out: IC50) | IC50 ([1]; read-out: pIC50 ± SEM (n value) (converted)) | Kind of modulation (shape of concentration-response curve) [2] | Enhancement of the ATP effect at low concentrations ([3]; wt P2X4, ATP at EC80) | Kind of modulation (shape of concentration-response curve) ([3]; wt P2X4, ATP at EC80) | Potency at P2X4-Q308T compared to wt P2X4 [4] | Potency increase at P2X4-E307T compared to wt P2X4 [5] | Water solubility [6] | Effect of mutation on antagonist potency (vs E307T) [11]
1 |  |  |  |  |  |  |  |  |  | Nc1c(S(=O)(=O)O)cc(Nc2ccc(Nc3nc(Cl)nc(Nc4ccccc4S(=O)(=O)O)n3)c(S(=O)(=O)O)c2)c2c1C(=O)c1ccccc1C2=O [Cibacron Blue] | no clear activating effect | 13100 nM | 12600 nM | biphasic modulation | up to 141% | biphasic modulation | similar | 680 fold | water-soluble | 
2 | reduction in inhibitory potency | 12500 ± 1900 nM | strong inhibition | 72.4 ± 10.2 nM | reduction in inhibitory potency | reduction in inhibitory potency | strong inhibition | 1620 nM |  | Nc1c(C(=O)O)cc(Nc2ccc(Nc3ccccc3)c(C(=O)O)c2)c2c1C(=O)c1ccccc1C2=O [PSB-0704] |  |  |  |  |  |  |  | > 170 fold | water-soluble | similarly potent; also recorded: no consequences
3 | reduction in inhibitory potency | 8910 ± 670 nM | strong inhibition | 35.3 ± 4.7 nM | reduction in inhibitory potency | reduction in inhibitory potency | strong inhibition | 324 nM | 3.41 ± 0.49 nM | Nc1c(S(=O)(=O)O)cc(Nc2ccc(Nc3ccccc3)c(S(=O)(=O)O)c2)c2c1C(=O)c1ccccc1C2=O [PSB-0739] |  |  |  |  |  |  |  |  |  | similarly potent; also recorded: no consequences
